Measurements published in patent publication US20190086390A1, “INDIRECT ASSESSMENT OF INSULIN RELEASE IN A CELL” (Board of Supervisors of Louisiana State University and …, priority 2016, published 2019).
Where “and” joins values, the source holds several entries; their conditions need not be identical. Equal entries are not always repeated. Entries after “also recorded” stand apart in the source; their conditions may differ.

Assays:
Type in all cases: cell-based, rat
[1] = system: 832/13 cells; experiment: Glucose-stimulated insulin secretion (GSIS) in 832/13 cells, insulin ELISA; details: for decrease in GSIS: 1 ng/ml IL-1β
Experimental: (§1) 832/13 cells were grown in 12-well plates and treated as indicated. Glucose-stimulated insulin secretion (GSIS) assays were performed as described previously (29). Insulin secretion by cell lines into the media was measured using either the High Range Rat Insulin ELISA kit (Mercodia, Uppsala, Sweden) or by rat islets using the insulin radioimmunoassay (Siemens, Malvern, Pa.) according to the company directions. In addition, cells were lysed using M-PER lysis reagent (Thermo Fisher Scientific) to quantify total intracellular protein content via BCA assay (Thermo Fisher Scientific). Insulin secretion data were normalized to total protein to account for any differences in cell number between treatment groups. Incorporation of tritiated thymidine into DNA as a cellular index of proliferation was carried out as described (45).

[2] = system: iNOS; experiment: iNOS mRNA (RT-PCR) and protein (immunoblot) abundance in 832/13 cells; details: 832/13 cells exposed to IL-1β
From the text: RNA isolation from cell lines and rat islets, cDNA synthesis, and analysis of real-time RT-PCR data has been described in detail previously (12). For all transcripts studied, the relative mRNA abundance was normalized to that of the housekeeping gene ribosomal S9. Primers used to detect transcript levels of ribosomal S9, iNOS, IL-1, and Nkx6.1 were designed using Primer3Plus software and are available upon request.
(§2) Cell lysis and extraction of cytoplasmic and nuclear protein fractions was performed using the NE-PER kit (Thermo Fisher Scientific) according to the manufacturer's directions. The protein concentration of the lysate was determined using the bicinchoninic acid assay (Thermo Fisher Scientific), using BSA as the standard. SDS-PAGE, transfer to polyvi-nylidene difluoride membranes, membrane blocking before antibody incubation, and downstream subsequent detection using a ChemiDoc imaging system (Bio-Rad) have been described previously (16). Antibodies detecting β-actin or tubulin were used as loading controls. Antibodies used were from the following sources: iNOS (Santa Cruz Biotechnology), (3-actin (Cell Signaling Technology), Ikα: (Santa Cruz Biotechnology), tubulin (Cell Signaling Technology), and Pdx-1 (Cell Signaling Technology). The antibody recognizing Nkx6.1 has been described (34). Immunoblot images were quantified using Image Lab software (Bio-Rad).

[3] = system: 832/13 and 833/15 cells; experiment: Mitochondrial/nuclear DNA ratio analysis; details: 6 or 18 h
Experimental: Genomic DNA was isolated using a DNeasy kit from Qiagen (Valencia, Calif.) per the manufacturer's protocol and quantified via quantitative PCR using iTaq Universal SYBR Green Supermix (Bio-Rad). Mitochondrial number was determined as the expression of genes encoded by mitochondrial DNA (COI and ATP6) relative to nuclear genes (NDUFA and SDHA) using the AACT method. This methodology has been described previously (24).

[4] = system: 832/13 cells; experiment: Nitric oxide by EPR spectroscopy with (MGD)2Fe2+ spin trap; details: 1 ng/ml IL-1β 18 h
Experimental: The spin trap Af-methyl-d-glucamine dithiocarbamate-iron complex [(MGD)2-Fe^2+] was prepared fresh in each experiment by making stock solutions of 500 mM MGD and 100 mM Fe^2+ (from FeS04.7 H20) in ultrapure water under anaerobic conditions. A final concentration of 25 mM MGD and 5 mM Fe^2+ was introduced onto cells in culture using serum-free media with a 30-min incubation period. Supernatants were then collected for the measurements of the (MGD)2-iron-NO complex. All electron paramagnetic resonance (EPR) measurements were carried out in a quartz flat cell at room temperature. Samples were transferred directly into the flat cell, which was then placed into the cavity of a Bruker EMX Plus spectroscope. Typical instrumental conditions were as follows: 20 mW of microwave power, 5.0-G modulation amplitude, 1×10^5 gain, 0.163-s time constant, and 80-G scan range. Quantitation was carried out by measuring and comparing the first peak heights on the spectra.

[5] = system: voltage-gated Ca^2+ channels; experiment: Whole cell voltage clamp recordings; details: n=25; for cell size (whole cell capacitance) vs control: IL-1β pretreatment
From the text: Cell culture dishes were mounted on the stage of an Olympus K70 inverted microscope. A reference Ag/AgCl pellet served to ground the bath. Patch electrodes were pulled from thick-walled borosilicate glass with a filament (outer diameter 1.5 mm; inner diameter: 0.86 mm; Sutter Instruments, Novato, Calif.) using a Haming-Brown Micropipette Puller (Sutter Instruments). Electrode resistance values ranged from 4 to 7 Mfl. Ruptured patch, whole cell voltage clamp recordings were made using an Axopatch ID-patch clamp amplifier (Molecular Devices, Sunnyvale, Calif.). Data were recorded using pClamp 10.0 software (Molecular Devices). Unless otherwise indicated, all reagents were purchased from Sigma-Aldrich (St. Louis, Mo.). External solutions consisted of the following (in mM): 116.7 NaCl, 20.0 TEAC1, 3.0 CaCl2, 0.4 MgCl2, 4.0 glucose, and 10.0 HEPES. Voltage clamp experiments were performed in the ruptured patch configuration using the following internal solution (in mM): 100.00 CsAc, 10.0 CsCl, 2.0 MgCl2, 0.1 CaCl2, and 10.0 HEPES. Also included was an ATP regeneration system to preserve Ca^2+ currents [3.0 ATP (dipotassium), 1.0 ATP (disodium), 20.0 phosphocreatine, 2.0 GTP, and 50 U/ml creatine phos-phokinase]. Cesium was used as a substitute for K^+ to minimize currents through voltage-gated K^+ channels. Tetrodotoxin (300 nM; Alomone Laboratories, Jerusalem, Israel) was included in the external solution to block voltage-gated Na^+ currents. The liquid junction potential error for these solutions was estimated to be −13 mV (pClamp). Solutions were adjusted to pH 7.4 with NaOH for external solutions and with CsOH for internal solutions. A pressurized gravity flow perfusion system (1.5-2 mi/min) was used to deliver the external solutions (AutoMate Scientific, Berkeley, Calif.).

[6] = system: Nkx6.1; experiment: Nkx6.1 protein abundance, immunoblot of cytosolic and nuclear fractions; details: 832/13 cells, IL-1β 4 h
Experimental: as §2

[7] = system: 832/13 cells; experiment: Oxygen consumption rate (Seahorse XF24); details: 1 ng/ml IL-1β, 18 h
Experimental: Oxygen consumption rates (OCR) were measured using the XF^24 Extracellular Flux Analyzer (Seahorse Bioscience, Chicopee, Mass.). 832/13 cells were grown on cell culture plates for 2 days prior to OCR assays being run. Cells were treated with vehicle, 1 ng/ml IL-β, 1 mM I-NMMA, or both IL-1β (1 ng/ml) plus I-NMMA (1 mM) for 18 h prior to OCR being measured. The oxygen consumption rate was measured over a 2-h period. Data represent the calculated average area under the curve from six wells per treatment group over multiple independent experiments.

[8] = system: 832/13 cells; experiment: Tritiated thymidine incorporation into DNA (proliferation); details: IL-1β 18 h
Experimental: as §1

For “IL-1β: proinflammatory cytokine purchased from Thermo Fisher Scientific, used at 1 ng/ml”, the “decrease in GSIS” value ([1]; 6 h) was 40% and 36%, the “decrease in GSIS” value ([1]; 12 h) was 59% and the “time by which insulin secretion began to decrease” value ([1]; IL-1β) was no more than 6 h. For the same substance, the “diminution in GSIS” value ([1]; IL-1β, associated with 13-fold increase in nitrite, time not given) was 54%, the “iNOS expression (transcript and protein)” value [2] was “rapidly induced; also recorded: accumulates; also recorded: robust iNOS abundance” and the “mitochondrial/nuclear DNA ratios” value [3] was “did not detect any alterations”. The “nitric oxide production in response to IL-1β” value [4] was “robust production of nitric oxide”, the “cell size (whole cell capacitance) vs control” value [5] was “no effect on cell size” and the “cell size (whole cell capacitance) vs control” value ([5]; listed as IL-I1β) was “not significantly different”. The “voltage-gated Ca^2+ current density vs control” value ([5]; IL-1β-treated 832/13 cells, step to −3 mV) was “not significantly different; also recorded: No significant difference”, the “decrease in Nkx6.1 abundance” value [6] was 47% and the “decrease in cellular oxygen consumption rate” value [7] was 25%. For the same substance, the “ability to incorporate thymidine into DNA” value [8] was “reduced markedly”.
